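Following 48 hours of exposure in 96-well plates, responses at five concentrations were used to interpolate endpoints linearly. GI50 = concentration required for 50% inhibition of growth.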 Active and inactive are the calls of the source. No stated cut-off is given here; in the data, active = GI50 up to about 1.1 µM and inactive = higher.
Tests used:
Experiment in all cases: NCI-60 cell line screen, 48 h
[1] = system: 786-0
[2] = system: ACHN
[3] = system: COLO 205
[4] = system: MOLT-4
[5] = system: NCI-H226
[6] = system: NCI-H522
[7] = system: OVCAR-4
[8] = system: OVCAR-5
[9] = system: OVCAR-8
[10] = system: SF-268
[11] = system: SF-295
[12] = system: SF-539
[13] = system: SK-MEL-28
[14] = system: SK-MEL-2
[15] = system: SK-OV-3
[16] = system: SN12C
[17] = system: SNB-75
[18] = system: SW-620
[19] = system: CCRF-CEM
[20] = system: HCC 2998

Compound	GI50 [1]	GI50 [2]	GI50 [3]	GI50 [4]	GI50 [5]	GI50 [6]	GI50 [7]	GI50 [8]	GI50 [9]	GI50 [10]	GI50 [11]	GI50 [12]	GI50 [13]	GI50 [14]	GI50 [15]	GI50 [16]	GI50 [17]	GI50 [18]	GI50 [19]	GI50 [20]
Clc1ccccc1CN1COc2c(cc(Cl)c3cccnc23)C1	4.39 µM (inactive)	1.84 µM (inactive)	19 µM (inactive)	0.28 µM (active)	1.3 µM (inactive)	3.4 µM (inactive)	3.97 µM (inactive)	4.28 µM (inactive)	2.85 µM (inactive)	5.18 µM (inactive)	1.85 µM (inactive)	2.69 µM (inactive)	6.27 µM (inactive)	6.19 µM (inactive)	8.75 µM (inactive)	0.0249 µM (active)	5.68 µM (inactive)	5.01 µM (inactive)		
COc1ccc(C(=O)C(c2ccc(OC)cc2)C2(O)C(=O)Nc3ccc([N+](=O)[O-])cc32)cc1 (stereo not drawn)	> 100 µM (inactive)	> 100 µM (inactive)	> 100 µM (inactive)	> 100 µM (inactive)	> 100 µM (inactive)	> 100 µM (inactive)	> 100 µM (inactive)	> 100 µM (inactive)	> 100 µM (inactive)	> 100 µM (inactive)	> 100 µM (inactive)	11.3 µM (inactive)	> 100 µM (inactive)	> 100 µM (inactive)	> 100 µM (inactive)	12.1 µM (inactive)	32.3 µM (inactive)	> 100 µM (inactive)	> 100 µM (inactive)	
C[Si](C)(c1ccc(C(=O)O)cc1)c1ccc(C(=O)O)cc1	> 100 µM (inactive)	> 100 µM (inactive)	> 100 µM (inactive)	> 100 µM (inactive)	> 100 µM (inactive)	> 100 µM (inactive)	> 100 µM (inactive)	> 100 µM (inactive)	> 100 µM (inactive)	> 100 µM (inactive)	> 100 µM (inactive)	> 100 µM (inactive)	> 100 µM (inactive)	> 100 µM (inactive)	> 100 µM (inactive)	> 100 µM (inactive)	> 100 µM (inactive)	> 100 µM (inactive)	> 100 µM (inactive)	
CNC(=O)OCC1=C(COC(=O)NC)C(C)N(c2ccc(OC)cc2)C1 (stereo not drawn)	57 µM (inactive)	62.2 µM (inactive)	59 µM (inactive)	33.6 µM (inactive)	1.18 µM (inactive)		54.6 µM (inactive)	24.1 µM (inactive)	80.4 µM (inactive)	> 100 µM (inactive)	88.9 µM (inactive)	59.8 µM (inactive)	> 100 µM (inactive)	> 100 µM (inactive)	> 100 µM (inactive)	> 100 µM (inactive)	29.4 µM (inactive)	> 100 µM (inactive)	47.2 µM (inactive)	
N#CCCN(CCC#N)c1ccc(/C=C2\N=C(c3ccccc3)N(c3ccc(C(=O)O)cc3)C2=O)cc1	52 µM (inactive)	42.5 µM (inactive)	39 µM (inactive)	0.641 µM (active)	27.9 µM (inactive)		14.4 µM (inactive)	> 100 µM (inactive)	26.2 µM (inactive)	21.1 µM (inactive)	48.8 µM (inactive)	24.4 µM (inactive)	36 µM (inactive)	52.5 µM (inactive)	> 100 µM (inactive)	70.1 µM (inactive)		21 µM (inactive)		
O=c1cc(-c2ccccc2)[nH]c2c(F)ccc(F)c12	79.6 µM (inactive)	> 100 µM (inactive)	48.1 µM (inactive)	46.2 µM (inactive)	37.6 µM (inactive)	27.7 µM (inactive)	> 100 µM (inactive)	43.9 µM (inactive)	82 µM (inactive)	> 100 µM (inactive)	33 µM (inactive)	52.8 µM (inactive)	59.8 µM (inactive)	16.4 µM (inactive)	> 100 µM (inactive)	63.5 µM (inactive)	15 µM (inactive)	35.3 µM (inactive)	> 100 µM (inactive)	
O=C1N=C2SC(=S)N=C(S)N2NC12c1ccccc1-c1ccccc12	> 10 µM (inactive)		> 10 µM (inactive)	> 10 µM (inactive)			5.13 µM (inactive)		> 10 µM (inactive)	> 10 µM (inactive)		> 10 µM (inactive)			> 10 µM (inactive)	> 10 µM (inactive)	> 10 µM (inactive)	> 10 µM (inactive)	7.78 µM (inactive)	> 10 µM (inactive)
CSc1nc2ccccc2c(=O)n1/N=C1\C(=O)N(CN2CCCCC2)c2ccc(Cl)cc21	22.3 µM (inactive)	28.6 µM (inactive)	17.9 µM (inactive)	12.4 µM (inactive)	75.9 µM (inactive)	12.2 µM (inactive)	30.2 µM (inactive)	64.6 µM (inactive)	37.2 µM (inactive)	20.1 µM (inactive)	37 µM (inactive)	37.6 µM (inactive)	60.5 µM (inactive)	19.5 µM (inactive)	27.4 µM (inactive)	28.7 µM (inactive)	19.7 µM (inactive)	12.5 µM (inactive)	20.6 µM (inactive)	
NC1=NNC(=O)c2nnc3c(C(=O)O)cnn3c2S1	> 100 µM (inactive)		> 100 µM (inactive)	> 100 µM (inactive)		> 100 µM (inactive)	> 100 µM (inactive)	> 100 µM (inactive)	> 100 µM (inactive)	> 100 µM (inactive)	> 100 µM (inactive)	> 100 µM (inactive)	> 100 µM (inactive)		> 100 µM (inactive)	> 100 µM (inactive)	47.4 µM (inactive)	> 100 µM (inactive)	10 µM (inactive)	
O=c1c2ccccc2nc2n1C(c1ccc([N+](=O)[O-])cc1)C2(c1ccccc1)c1ccccc1 (stereo not drawn)	> 100 µM (inactive)	> 100 µM (inactive)	8.3 µM (inactive)	5.46 µM (inactive)		> 100 µM (inactive)	> 100 µM (inactive)	> 100 µM (inactive)	> 100 µM (inactive)	> 100 µM (inactive)	> 100 µM (inactive)	> 100 µM (inactive)	> 100 µM (inactive)	> 100 µM (inactive)	> 100 µM (inactive)	> 100 µM (inactive)		> 100 µM (inactive)	8.45 µM (inactive)	
CN(C)c1ccc(/C=C2\C[C@H]3[C@@H]4CCC5=CC(=O)CC[C@]5(C)[C@H]4CC[C@]3(C)C2=O)cc1	48 µM (inactive)	29.4 µM (inactive)	21.7 µM (inactive)	14.8 µM (inactive)	62.4 µM (inactive)		59.7 µM (inactive)	> 100 µM (inactive)	31.8 µM (inactive)	46.3 µM (inactive)	> 100 µM (inactive)	28.7 µM (inactive)	> 100 µM (inactive)	50.9 µM (inactive)	> 100 µM (inactive)	44.3 µM (inactive)	> 100 µM (inactive)	48.9 µM (inactive)		
Clc1cccc(Cl)c1C(Nc1nncs1)Nc1nncs1	28.7 µM (inactive)	73.6 µM (inactive)	35.4 µM (inactive)	17.3 µM (inactive)	26.9 µM (inactive)	22.3 µM (inactive)	59.4 µM (inactive)	36.5 µM (inactive)	33.8 µM (inactive)	81.7 µM (inactive)	38.2 µM (inactive)	23.9 µM (inactive)	21.8 µM (inactive)	38.6 µM (inactive)	32 µM (inactive)	38.4 µM (inactive)	> 100 µM (inactive)	20.7 µM (inactive)		
COc1c(NC(C)=O)c2ccccc2c2ccccc12	> 100 µM (inactive)	> 100 µM (inactive)		66.5 µM (inactive)	49.5 µM (inactive)	> 100 µM (inactive)	> 100 µM (inactive)	> 100 µM (inactive)	> 100 µM (inactive)	> 100 µM (inactive)	> 100 µM (inactive)		> 100 µM (inactive)	> 100 µM (inactive)		> 100 µM (inactive)		> 100 µM (inactive)	> 100 µM (inactive)	
CC(=O)Nc1cc(CN2CCCCC2)c(O)c2ncccc12	8.04 µM (inactive)	17.8 µM (inactive)	49.7 µM (inactive)	10.1 µM (inactive)	31.7 µM (inactive)	37.3 µM (inactive)	35.2 µM (inactive)	34.8 µM (inactive)	29.6 µM (inactive)	23.7 µM (inactive)	25.4 µM (inactive)	58.5 µM (inactive)	27.3 µM (inactive)	4.13 µM (inactive)	36.5 µM (inactive)	26 µM (inactive)		39.7 µM (inactive)	41.5 µM (inactive)	
CC1CCC2C(C)(C)CC3(C)CCC1C23O (stereo not drawn)	15.6 µM (inactive)	16.1 µM (inactive)	18.3 µM (inactive)	11.2 µM (inactive)	15.3 µM (inactive)		22.1 µM (inactive)	18.9 µM (inactive)	17.2 µM (inactive)		12.7 µM (inactive)	17.8 µM (inactive)	16.3 µM (inactive)	14.1 µM (inactive)	29 µM (inactive)	16.9 µM (inactive)	18.8 µM (inactive)	16 µM (inactive)	4.02 µM (inactive)	
CN1C2CCC1CC(CCOC(c1ccc(F)cc1)c1ccc(F)cc1)C2 (stereo not drawn)	15.9 µM (inactive)	17.1 µM (inactive)	11.7 µM (inactive)	11.9 µM (inactive)	15.3 µM (inactive)	17.1 µM (inactive)	17.4 µM (inactive)	15.9 µM (inactive)	17.3 µM (inactive)	15.8 µM (inactive)	16.9 µM (inactive)	15.9 µM (inactive)	16 µM (inactive)	16.9 µM (inactive)	16.6 µM (inactive)	18.4 µM (inactive)	14.3 µM (inactive)	19.4 µM (inactive)	18.4 µM (inactive)	

From ChEMBL document CHEMBL1201862, “PubChem BioAssay data set” (2004)
